# Reference: PMC6718478, “A Comprehensive Antimicrobial Activity Evaluation of the Recombinant Microcin J25 Against the Foodborne Pathogens Salmonella and E. coli O157:H7 by Using a Matrix of Conditions” (Frontiers in Microbiology, 2019)
# Positions of bridges follow the written chain, without caps; N, C: chain ends. Residues, ends and D or L forms follow the SMILES beside them.
# Assays:
# E. coli O157:H7 [1] = experiment: Live/Dead BacLight viability assay; assay type: cell-based, Escherichia coli; settings: at the MIC level, 2 h at 37°C, 5 × 10^4 CFU/mL in LB; fluorescence microscopy
# Experimental: A Live/Dead BacLight Bacterial Viability Kit 7 (Molecular Probes, Inc., Eugene) was used to test bacterial viability. Briefly, 5 × 10^4 CFU/mL S. Pullorum, S. Typhimurium, and E. coli O157:H7 were inoculated into 1 mL of LB containing recombinant MccJ25 at the MIC level specific for each pathogen. Bacterial cultures were incubated at 37°C for 2 h and then incubated in the dark at ambient temperature with SYTO 9 and propidium iodide for 15 min. Bacteria were observed using a fluorescence microscope (EVOS XL Cell Imaging System).
# E. coli O157:H7 [2] = experiment: Antimicrobial activity in different growth phases, viable plate counting; assay type: cell-based, Escherichia coli; settings: 4 × MIC, LB, plate counts, n = 6
# Experimental: The effect of growth phase on the anti-Salmonella and -E. coli O157:H7 activity of recombinant MccJ25 was determined by the viable plate counting method, as described previously ([Ma et al., 2016]; [Fan et al., 2017]), with minor modifications. Cultures of the strains in the early-log phase, late-log phase and stationary phase were washed, concentrated and diluted with sterilized phosphate-buffered saline (PBS) to approximately 10^7 CFU/mL. Then, 1 mL was incubated individually in 9 mL of PBS to reach an approximate 10^6 CFU/mL final concentration. The bacterial cells were then inoculated into 5 mL of LB containing different concentrations of MccJ25 (0, 1 × MIC, 2 × MIC, and 4 × MIC). At 0, 12, 24, and 48 h post incubation, the cultures (0.1 mL) were serially diluted with PBS and plated on LB and TSA agar. The plates were incubated at 37°C overnight to count colony. Colonies were counted to determine CFU/mL. The experiment was conducted with two replicates in three independent trials.
# S. Pullorum [3] = experiment: Antimicrobial activity in biological food products (skim milk, egg yolk, mincemeat extract); assay type: cell-based, Salmonella Pullorum; settings: 4 × MIC, 37°C; for viable bacteria after 24 h in the three food products: SKM, SEY, SMS, data not shown; for CFU reduction after 24 h: inoculum 10^6 CFU/mL, 250 rpm, plate counts, n = 6
# Experimental: To further investigate the effects of recombinant MccJ25 on Salmonella and E. coli O157:H7 in different biological food products, sterile skim milk, egg yolk and mincemeat (pork) extract were collected and used as described previously with minor modifications ([Sable et al., 2000]). The skim milk, egg and mincemeat samples were purchased from a Carrefour store in Beijing. Specimens were kept on ice packs in coolers until they reached the laboratory, where they were stored at 4°C. The skim milk (SKM) and mincemeat supernatant (SMS) were autoclave sterilized at 121°C for 20 min. After autoclaving, the SKM and SMS samples were stored at 4°C for further use. The eggs were sterilized with 75% ethanol and transferred into an exceptionally clean bench to collect the egg yolk (SEY). The SEY was diluted 1:1 with sterile distilled water. Biological product samples were mixed with a final concentration of 4 × MIC of recombinant MccJ25 solution in sterile saline water (0.85%). They were then inoculated with S. Pullorum, S. […] Sterilized saline water (SSW) with the recombinant MccJ25 was utilized for comparison. This assay was performed to obtain the desired quantity of cells. The mixtures were tested after 24 h of incubation at 37°C with shaking (250 rpm). After incubation, Salmonella species and E. coli O157:H7 were serially diluted with PBS and plated on LB and TSA agar. The plates were incubated at 37°C overnight to count colony. Colonies were counted to determine CFU/mL. The experiment was conducted with two replicates in three independent trials.
# S. Pullorum [4] = experiment: SEM of cell membrane morphology; assay type: cell-based, Salmonella Pullorum; settings: 1 or 4 × MIC for 1 h at 37°C; ~2 × 10^6 cells
# Experimental: To assess the alteration of S. Pullorum cell membrane morphology and ultrastructure, SEM and TEM were performed as described previously, with minor modifications ([Wang et al., 2017]; [Meng et al., 2019]). For SEM sample preparation, approximately 2 × 10^6 S. Pullorum cells were incubated at 37°C for 1 h with the recombinant MccJ25 at 1× and 4 × MIC levels. The control was performed without the recombinant MccJ25. After incubation, the cells were harvested, mixed and centrifuged at 8,000 × g for 3 min. The bacterial pellets were washed three times in PBS and centrifuged at 3,000 × g for 10 min. The bacterial cells were resuspended in 500 μL of PBS and supplemented with 2.5% fresh glutaraldehyde at 4°C overnight. Thereafter, the bacterial pellets were postfixed in 1% osmium tetroxide, dehydrated, and coated with gold-palladium. They were observed by SEM (EVO MA10 XVP, Carl Zeiss).
# S. Pullorum [5] = experiment: TEM of morphology and intracellular alteration; assay type: cell-based, Salmonella Pullorum
# Experimental: For TEM sample preparation, (1) two milliliters of 2 × 10^6 cells of S. Pullorum broth cultured in the absence or presence of 1×, 2× and 4× MIC of the recombinant MccJ25 were incubated and collected at 1 h. (2) After that, approximately 2 × 10^6 S. Pullorum cells were incubated at 37°C for […] with the recombinant MccJ25 at 2 × MIC for 2, 3, and 4 h. They were then centrifuged at 5,000 × g for 5 min. Pretreatment of bacterial samples was conducted in the same way as the SEM treatment. Finally, the samples were placed in capsules containing embedding medium and heated at 70°C for approximately 9 h. Specimens were stained with uranyl acetate and alkaline lead citrate for 15 min. They were then observed by TEM (Model JEM-1230, JEOL, Japan).
# IPEC-J2 cells = experiment: Salmonella invasion of IPEC-J2 cell monolayers; assay type: cell-based; settings: 6 h with recombinant MccJ25, Salmonella for 2 h; plate counts, n = 9
# Experimental: FIGURE S1 | Protective effects of recombinant MccJ25 against Salmonella invasion of IPEC-J2 cell monolayers. IPEC-J2 cells were cultured with or without recombinant MccJ25 for 6 h in the absence or presence of Salmonella for 2 h. The invasion of Salmonella in the IPEC-J2 cells was determined. Salmonella (mean CFU/ml ± SEMs) were determined by plate counts, and determined from three individual experiments. n = 9. Different superscript lowercase letters within each group indicate significant differences (P < 0.05).
# Claudin-1 = experiment: Tight junction protein mRNA expression in Salmonella-challenged IPEC-J2 cells, real-time PCR; assay type: cell-based; settings: 6 h with recombinant MccJ25, then Salmonella for 2 h, n = 9
# Experimental: (§1) IPEC-J2 cells were cultured with or without recombinant MccJ25 for 6 h and then treated with Salmonella for 2 h. Cells were collected, and relative mRNA expression was analyzed by real-time PCR. The data are the means ± SEMs of three independent experiments, n = 9. Different superscript lowercase letters within each group indicate significant differences (P < 0.05).
# ZO-1 = experiment: as above; assay type: cell-based; settings: 6 h with recombinant MccJ25, then Salmonella for 2 h, n = 9
# Experimental: as §1
structure (smiles),measurement,setting,value
"CC[C@H](C)[C@H](NC(=O)CNC(=O)[C@@H](NC(=O)[C@H](Cc1ccccc1)NC(=O)[C@H](Cc1ccc(O)cc1)NC(=O)[C@@H]1CCC(=O)NCC(=O)NCC(=O)N[C@@H](C)C(=O)NCC(=O)N[C@@H](Cc2c[nH]cn2)C(=O)N[C@@H](C(C)C)C(=O)N2CCC[C@H]2C(=O)N1)C(C)C)C(=O)NCC(=O)N[C@H](C(=O)N1CCC[C@H]1C(=O)N[C@H](C(=O)N[C@@H](CO)C(=O)N[C@@H](Cc1ccccc1)C(=O)N[C@@H](Cc1ccc(O)cc1)C(=O)NCC(=O)O)[C@@H](C)CC)[C@@H](C)O [recombinant MccJ25, microcin J25] (GGAGHVPEYFVGIGTPISFYG-OH; lactam N-8 (inferred); C-terminus assumed)","bactericidal activity, Live/Dead staining (SYTO 9 / propidium iodide)",E. coli O157:H7 [1],excellent bactericidal activity
same,time to reduction to non-detectable levels,E. coli O157:H7 [2]; early-log phase cells,≤ 12 h
same,time to reduction to non-detectable levels,E. coli O157:H7 [2]; late-log phase cells,≤ 24 h
same,time to reduction to non-detectable levels,E. coli O157:H7 [2]; stationary phase cells,48 h
same,viable bacteria after 24 h in the three food products,S. Pullorum [3]; inoculum 10^3 CFU/mL,no viable bacteria were detected
same,viable bacteria after 24 h in the three food products,S. Pullorum [3]; inoculum 10^4 CFU/mL,no bacteria were detected
same,CFU reduction after 24 h,"S. Pullorum [3]; sterilized egg yolk (SEY), diluted 1:1",~8 × 10^3 CFU/mL
same,CFU reduction after 24 h,S. Pullorum [3]; sterilized mincemeat supernatant (SMS),~7 × 10^3 CFU/mL
same,CFU reduction after 24 h,S. Pullorum [3]; sterilized skim milk (SKM),approximately 10^4 CFU/mL
same,cell membrane morphology by SEM,S. Pullorum [4],"minimal membrane roughening, enlargement, and some filiferous adhesions in a small amount of cells"
same,cytoplasmic membrane integrity by TEM,"S. Pullorum [5]; 1, 2, or 4 × MIC for 1 h, 2 × 10^6 cells",significantly disrupted the membrane
same,morphology and intracellular alteration by TEM,"S. Pullorum [5]; 2 × MIC for 2, 3, and 4 h","deformed small septa, invisible cytoplasmic membranes, heterogeneous electron density, electron-light regions and thinned cell walls"
same,S. Pullorum invasion of IPEC-J2 cells,IPEC-J2 cells,inhibited S. Pullorum invasion
same,mRNA expression of Claudin-1,Claudin-1,significantly increased
same,mRNA expression of ZO-1,ZO-1,significantly increased
